The values that follow come from US8283345B2, “Azetidine analogues of nucleosidase and phosphorylase inhibitors” (Industrial Research Limited, priority 2006, dated 2012).

One test addresses T1, Bovine PNP (Bos taurus, UniProt P55859).
T1 sequence (P55859 1-289): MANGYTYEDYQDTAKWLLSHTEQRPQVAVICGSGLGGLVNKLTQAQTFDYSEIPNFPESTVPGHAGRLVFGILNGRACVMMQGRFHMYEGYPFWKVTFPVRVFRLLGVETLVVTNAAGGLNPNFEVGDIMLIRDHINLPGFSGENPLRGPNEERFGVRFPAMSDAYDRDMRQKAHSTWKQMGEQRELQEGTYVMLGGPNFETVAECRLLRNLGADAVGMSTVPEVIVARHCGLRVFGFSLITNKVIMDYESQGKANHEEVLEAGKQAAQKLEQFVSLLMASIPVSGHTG
In words: PNP inhibition, xanthine oxidase coupled assay. The format is biochemical.

For a further test, the target named is T2, Human PNP (Homo sapiens, UniProt P00491).
T2 sequence (P00491 1-289): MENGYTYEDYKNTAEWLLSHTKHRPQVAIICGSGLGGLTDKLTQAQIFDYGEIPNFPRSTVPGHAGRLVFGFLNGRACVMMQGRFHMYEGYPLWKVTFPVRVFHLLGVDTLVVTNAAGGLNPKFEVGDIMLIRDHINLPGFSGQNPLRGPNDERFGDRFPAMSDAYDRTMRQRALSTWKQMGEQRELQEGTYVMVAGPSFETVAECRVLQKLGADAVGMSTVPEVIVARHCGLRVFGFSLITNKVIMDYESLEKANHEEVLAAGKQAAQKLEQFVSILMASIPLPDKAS
In words: PNP inhibition, xanthine oxidase coupled assay. Type of test: biochemical. To be noted: inosine Km 40 μM.

In another test the target is T3, P. falciparum PNP (Plasmodium falciparum, UniProt Q8I3X4).
T3 sequence (Q8I3X4 1-245): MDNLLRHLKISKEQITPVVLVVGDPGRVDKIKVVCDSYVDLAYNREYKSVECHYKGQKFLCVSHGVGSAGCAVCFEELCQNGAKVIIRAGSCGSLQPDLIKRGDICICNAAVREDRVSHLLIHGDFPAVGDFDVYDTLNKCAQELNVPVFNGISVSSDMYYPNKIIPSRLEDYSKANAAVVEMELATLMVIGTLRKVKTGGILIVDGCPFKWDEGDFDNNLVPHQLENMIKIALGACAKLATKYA
Briefly: biochemical.

In another test the target is S. pneumoniae MTAN (Streptococcus pneumoniae, UniProt Q8DQ16). In words: MTAN inhibition, xanthine oxidase coupled assay. Type of test: biochemical. To be noted: MTA Km 23 μM. On the procedure:
(§1) For PNP assays, inosine and inhibitor concentrations were determined spectrophotometrically using an ε260 of 7.1 mM^−1 cm^−1 (pH 6) [Dawson' et al, Data for Biochemical Research, 3rd ed., 1986, Clarendon Press, Oxford, U.K.] and an ε261 of 9.54 mM^−1 cm^−1 (pH 7) [Lim, M.-I.; Ren, Y.-Y.; Otter, B. A.; Klein, R. S., J. Org. Chem. 1983, 48, 780-788], respectively. For MTAN/MTAP assays, methylthioadenosine and inhibitor concentrations were determined using an ε260 of 14.9 mM^−1 cm^−1 (pH 6) [Dawson et al, as above] and an ε275 of 8.5 mM^−1 cm^−1 (pH 7), [J. Org. Chem. 1983, 48, 780-788] respectively. PNP and MTAN/MTAP activities were monitored by xanthine oxidase coupled assays, as previously described [Biochemistry, 2006, 45, 12929-12941; Biochemistry, 1998, 37, 8615-8621]. In all cases, the inhibitor concentration was at least 10-fold greater than the enzyme concentration, as required for simple analysis of slow-onset tight-binding inhibition [Morrison, J. F.; Walsh, C. T. Adv. Enzymol. Relat. Areas Mol. Biol., 1988, 61, 201-301] Michaelis constants used in data fitting were as follows: 40 μM, 34 μM, and 5 μM for inosine with human, bovine, and P. falciparum PNPs, respectively; 5 μM, 0.43 μM, and 23 μM for MTA with human MTAP, E. coli MTAN, and S. pneumoniae MTAN, respectively.

In another test the target is E. coli MTAN (Escherichia coli, UniProt P0AF12). In words: MTAN inhibition, xanthine oxidase coupled assay. The format is biochemical. To be noted: MTA Km 0.43 μM. On the procedure: as §1
In another test the target is T4, Human MTAP (Homo sapiens, UniProt Q13126).
T4 sequence (Q13126 1-283): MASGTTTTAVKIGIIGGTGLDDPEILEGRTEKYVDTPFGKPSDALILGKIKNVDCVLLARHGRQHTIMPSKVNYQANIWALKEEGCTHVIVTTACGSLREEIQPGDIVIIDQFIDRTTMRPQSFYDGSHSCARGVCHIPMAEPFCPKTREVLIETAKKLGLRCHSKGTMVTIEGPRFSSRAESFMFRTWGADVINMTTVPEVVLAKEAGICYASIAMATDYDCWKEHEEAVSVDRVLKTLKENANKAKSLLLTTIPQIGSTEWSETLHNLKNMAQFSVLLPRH
Briefly: MTAP inhibition, xanthine oxidase coupled assay. To be noted: MTA Km 5 μM. The format is biochemical.

Setting [1] is: inhibition constant Ki, inosine Km 34 μM, read-out: Ki Bovine PNP.
[2] abbreviates: inhibition constant Ki, read-out: Ki Human PNP.

Molecules are shown by their SMILES. Where a name gives a salt, the structure may show the parent alone. Read-outs that look alike come from different tables or passages of the source.

Sequence of S. pneumoniae MTAN (Q8DQ16 entry or part of it): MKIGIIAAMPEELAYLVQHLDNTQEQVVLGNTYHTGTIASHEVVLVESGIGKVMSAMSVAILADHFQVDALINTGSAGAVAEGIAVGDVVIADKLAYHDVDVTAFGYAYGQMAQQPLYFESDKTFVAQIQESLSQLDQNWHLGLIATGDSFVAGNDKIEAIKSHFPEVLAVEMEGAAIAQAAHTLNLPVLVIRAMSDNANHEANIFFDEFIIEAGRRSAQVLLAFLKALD
Sequence of E. coli MTAN (P0AF12 whole entry): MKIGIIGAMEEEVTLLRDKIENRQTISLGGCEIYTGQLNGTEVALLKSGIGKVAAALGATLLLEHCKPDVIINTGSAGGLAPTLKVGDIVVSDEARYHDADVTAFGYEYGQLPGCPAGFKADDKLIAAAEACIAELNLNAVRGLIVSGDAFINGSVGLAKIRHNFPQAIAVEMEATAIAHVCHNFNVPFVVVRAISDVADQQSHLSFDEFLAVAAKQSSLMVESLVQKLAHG
Experimental for Bovine PNP: (§2) PNP and MTAN/MTAP activities were monitored by xanthine oxidase coupled assays, as previously described [Biochemistry, 2006, 45, 12929-12941; Biochemistry, 1998, 37, 8615-8621]. […] Michaelis constants used in data fitting were as follows: 40 μM, 34 μM, and 5 μM for inosine with human, bovine, and P. falciparum PNPs, respectively; 5 μM, 0.43 μM, and 23 μM for MTA with human MTAP, E. coli MTAN, and S. pneumoniae MTAN, respectively.
Experimental for Human MTAP: as §2
Experimental for Human PNP: as §2
Experimental for P. falciparum PNP: as §2

`O=c1[nH]cnc2c(CN3[C@H](CO)C[C@H]3CO)c[nH]c12` (racemic) [(±)-37, (±)2,4-trans-[(9-Deazahypoxanthin-9-yl)methyl]azetidine-2,4-dimethanol hydrochloride]: the values for the Ki on Bovine PNP (setting [1]), on Human PNP (setting [2]) and on P. falciparum PNP were 360 nM, 280 nM and 580 nM, respectively.
As to `O=c1[nH]cnc2c(CN3CCC3CO)c[nH]c12` (racemic) [(±)-43, (±)7-((2-(Hydroxymethyl)azetidin-1-yl)methyl)-5H-pyrrolo[3,2-d]pyrimidin-4-ol], the inhibition constant (Ki) (usually the equilibrium dissociation constant of an inhibitor or competing ligand from its target) on Bovine PNP stood at 1.8 nM; at Human PNP (Ki Human PNP, inhibition constant Ki), 1.8 nM; at Human PNP (Ki* Human PNP, Ki*, slow-onset tight-binding inhibition) it was 0.26 nM.
As to `O=c1[nH]cnc2c(CN3CC(CO)(CO)C3)c[nH]c12` [Compound 18, 1-[(9-Deazahypoxanthin-9-yl)methyl]azetidine-3,3-dimethanol], the Ki at Bovine PNP is 0.065 nM; at Bovine PNP (Ki*, slow-onset tight-binding inhibition, inosine Km 34 μM, read-out: Ki* Bovine PNP), 0.236 nM; on Human PNP (setting [2]), 0.229 nM; at P. falciparum PNP, over 10000 nM.
For the compound `O=c1[nH]cnc2c(CN3CC(CO)C3)c[nH]c12` [Compound 19, 1-[(9-Deazahypoxanthin-9-yl)methyl]azetindine-3-methanol], the values for the Ki on Bovine PNP (setting [1]), on Human PNP (setting [2]) and on P. falciparum PNP (read-out: Ki P. falciparum PNP) were 4.8 nM, 6.3 nM and over 10000 nM, respectively.
Turning to `CSCC1(CO)CN(Cc2c[nH]c3c(N)ncnc23)C1` [Compound 21, 1-[(9-Deazaadenin-9-yl)methyl]-3-methylthiomethylazetidine-3-methanol hydrochloride], the Ki came out at 150 nM on S. pneumoniae MTAN, 0.84 nM at E. coli MTAN and 140 nM at Human MTAP.
For `CSCC1CN(Cc2c[nH]c3c(N)ncnc23)C1` [Compound 22, 1-[(9-Deazaadenin-9-yl)methyl]-3-methylthiomethylazetidine], in that order: 84 nM, 0.45 nM and 2 nM.
Take `O=c1[nH]cnc2c(CN3[C@H](CO)C[C@@H]3CO)c[nH]c12` [Compound 36, meso-[(9-Deazahypoxanthin-9-yl)methyl]azetidine-2,4-dimethanol hydrochloride]: the Ki at Bovine PNP (setting [1]) came to 16 nM; on Human PNP (setting [2]), 12.9 nM; on P. falciparum PNP, 1290 nM.
